Results reported in patent publication US20240239790A1, “7-Morpholino-1,6-Naphthyridin-5-yl Derivatives and Pharmaceutical Compositions Thereof Useful as DNA-PK Inhibitor” (adMare Therapeutics Society, priority 2021, published 2024).
Like-named read-outs stand apart in the source and are kept apart here.

Columns and labels:
[1] = molecular target: T1, DNA-PK phosphorylation at Serine 2056 (Homo sapiens, UniProt P78527); test: Cellular Assay for Inhibition of DNA-PK Phosphorylation at Serine 2056 in FaDu cells (sandwich ELISA, neocarzinostatin); format: cell-based; settings: pSer2056 DNA-PK
T1 construct: FaDu cells were purchased from ATCC; host or cells: FaDu
Procedure, shortened: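 pSer2056 and total DNA-PK were measured by sandwich ELISA in BCA-normalised FaDu lysates. Cells had 1 h compound exposure (0.3% DMSO), then 2 h with 1 μg/mL final neocarzinostatin. IC50 was fitted (variable slope) to % inhibition scaled against NCS-stimulated and DMSO-only controls.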

[2] = system: pDNA-PK induction in HCT116 tumour spheroids; test: Multicellular tumour spheroid + radiation, pDNA-PK (ser2056) inhibition, immunohistochemical endpoint, HCT116; format: cell-based; settings: 20 Gy, 20% O2
Method: Multicellular tumour spheroids determination of compound inhibition of pDNA-PK induction following radiation. Tumour spheroids were grown to approximately 0.5 mm in diameter and irradiated with 20 Gy in combination with inhibitor test compounds to determine their potency. Inhibitor concentration for 50% reduction in pDNA-PK induction (IC50) was determined via immunohistochemical staining in spheroid cryosections taken 2 hours following radiation.
(§1) Spheroid+radiation pDNA-PK. Radiation: 20 Gy. Drug: serial dilution 5 or 10 μM down to 3.5 nM (11 wells). Spheroids: 3-6 spheroids per well (300-500 μm diameter). 20% 02 and 5% CO2. 96 well plate format.
Protocol: pre-incubate 1 hours with drug, irradiate with 20 Gy, post-incubate 2 hours with drug, freeze and cryosection ×3 replicates.
Endpoint: fluorescent immunostin pDNA-PK ser2056 and image on microscope.
Analysis: determine EC50 concentration that decreases pDNA-PK induction by 50% after radiation.
Multicellular tumour spheroids determination of compound inhibition of pDNA-PK induction following radiation. Tumour spheroids were grown to approximately 0.5 mm in diameter and irradiated with 20 Gy in combination with inhibitor test compounds to determine their potency. Inhibitor concentration for 50% reduction in pDNA-PK induction (IC50) was determined via immunohistochemical staining in spheroid cryosections taken 2 hours following radiation. For cell survival endpoint 8 Gy radiation was used and 3 hours following radiation spheroids were dissociated, counted and plated for colony forming endpoint.
as §1, with “format. Endpoint: fluorescent immunostain pDNA-PK ser2056 and image on microscope. Analysis: determine EC50 concentrations that decreases pDNA-PK induction by 50% after irradiation.” for “format.”
Multicellular tumour spheroids were used to determine potency of test compounds in a 3D tissue environment using inhibition of pDNA-PK induction following radiation or cell survival as the endpoint. For the pDNA-PK endpoint HCT116 or FaDU tumour spheroids were grown to approximately 0.5 mm in diameter and irradiated with 20 Gy in combination with inhibitor test compounds to determine their potency. Experiments were carried out in 96 well plates containing 0.7 mls of MEM media containing 10% FBS and 10 mM glucose under 20% O2 & 5% CO2 at 37° C. Following dilution of compounds 1:1000 from DMSO stocks, compounds were serially diluted from 10 μM down to 3.5 nM and 5-10 spheroids added. 96 well plates were constantly stirred to avoid spheroids settling during the course of the experiment. The inhibitor concentration for 50% reduction in pDNA-PK induction (EC50) was determined via immunohistochemical staining in spheroid cryosections taken 2 hours following radiation using anti-pDNA-PK (ser 2056) and fixed immediately in formalin following sectioning. For cell survival endpoint 8 Gy radiation was used and, 3 hours following radiation, spheroids were dissociated, counted and plated for colony forming endpoint. Data presented in the table compound potency as EC50 [μM].

DNA-PK = molecular target: T2, DNA-PK (Homo sapiens, UniProt P78527); test: DNA-PK Assay for Biochemical Enzymatic Inhibition (ADP Glo Kinase assay); settings: DNA-PK enzyme
T2 construct: purchased Invitrogen PR9107A
Method: A biochemical assay was performed to identify IC50 values against DNA-PK activity in a two-step reaction with a kinase reaction followed by ADP Glo™ Kinase assay Kit (Promega V9102).
Three-fold serial dilutions of compounds in DMSO were prepared in kinase assay buffer (50 mM HEPES pH 7.5, 20 mM MgCl2, 100 mM KCl, 50 μM DTT, 10 μg/ml calf thymus DNA, 0.01% Tween 20). Kinase assay buffer was used to prepare compound treatments to 0.02% DMSO (dimethyl sulphoxide) content. DMSO controls were prepared to produce a maximum and minimum luminescence signal for normalization. Substrate (Anaspec, AS-60210-5) and ATP (Promega V9102) and ATP mix was prepared by dilution in kinase assay buffer for 434.4 μM and 64.4 μM final assay concentrations, respectively. Compounds and control were added to 25 ng DNA-PK enzyme (Invitrogen, PR9107A) diluted in kinase buffer in assay plate (Corning 267459) and incubated for 15 minutes at room temperature prior to addition of substrate and ATP mix.
Throughout the assay, each time a reagent was added to the microplate, it was centrifuged for 1 minute at 1300 rcf. All reagents were added, and incubations carried out at room temperature. The reaction was then incubated for 60 minutes. ADP-ATP standards at 0, 4, 10, 40, 80, and 100% ADP (prepared as specified in the ADP Glo™ Kinase assay kit) were also added to the microplate at a volume equal to the total kinase reaction. The ADP Glo™ Kinase Assay kit was then used to quantify DNA-PK activity: following the 60-minute incubation, a 1:1 volume of ADP Glo reagent was added to all wells, then following a further 45-minute incubation, a 1:1 volume of Kinase Detection Reagent was added to all wells. After this two-step assay, plates were incubated in a Synergy-Neo2 plate reader for 30 minutes with gentle shaking, followed by endpoint luminescent read Luminescence data was normalized by subtracting the background signal and expressing all background-adjusted values as a percentage of the average maximum signal. The data was then expressed as percent inhibition by subtracting from 100% (i.e. maximum luminescent signal will be 0% inhibition) and the resulting data plotted against ten concentration points on a logarithmic scale, using GraphPad Prism. Non-linear regression analysis was performed on each concentration response curve and the log [inhibitor] vs response—variable slope (four parameters) equation was selected to generate IC50 values.

[3] = system: pH2AX induction in HCT116 ATM-/- multicellular tumour spheroids; test: Prodrug Radiation Sensitization in Multicellular Tumour Spheroids, inhibition of pH2AX induction following radiation; format: cell-based
Procedure, shortened: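 Endpoint: pH2AX (ser 139) or pDNA-PK (ser 2056) in cryosections fixed 1 or 2 h after 20 Gy, comparing oxygenated outer with hypoxic inner layers. Spheroids of ~0.5 mm (HCT116, FaDu; ATM-deficient cells used) held at 20% or 5% O2, 37 °C, stirred. Prodrug range 3.5 nM–10 μM.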

[4] = neocarzinostatin 1 μg/mL, Table 1
[5] = 2 hours following radiation, Example 9 Study 2, read-out: Spheroid Cell line: HCT116 Immunohistochemical endpoint pDNA-PK inhibition EC50
[6] = Spheroid, Cell Line: HCT115 (so in the source), 2 hours following radiation, Example 7, read-out: EC50, Immunohistochemical endpoint, pDNA-PK inhibition
[7] = spheroids, Example 8, read-out: Cell line: HCT116 Immunohistochemical endpoint pDNA-PK inhibition EC50
[8] = Homo sapiens, HCT-116, 2 hours following radiation, Example 9 Study 2, read-out: Spheroid Cell line: HCT116 Immunohistochemical endpoint pDNA-PK inhibition EC50
[9] = Homo sapiens, HCT-116, Spheroid, Cell Line: HCT115 (so in the source), 2 hours following radiation, Example 7, read-out: EC50, Immunohistochemical endpoint, pDNA-PK inhibition

| Molecule | IC50 [1, 4] [nM] | IC50 (DNA-PK; Table 1) [nM] | EC50 [2, 8] [nM] | EC50 [2, 9] [nM] | also measured |
| --- | --- | --- | --- | --- | --- |
| N=C(N)N[C@H]1CC[C@@H](Oc2nc(N3CCOCC3)cc3ncccc23)CC1 [Compound 16, 1-((1s,4s)-4-((7-morpholino-1,6-naphthyridin-5-yl)oxy)cyclohexyl)guanidine] | 1000 to 10000 | 1 to 10 | – | – | EC50 [2, 5]: 10000 to 100000 nM; EC50 [2, 6]: 10000 to 100000 nM; EC50 [2, 7]: 10000 to 100000 nM |
| O=C(O)COc1cnc(N[C@H]2CC[C@@H](Oc3nc(N4CCOCC4)cc4ncccc34)CC2)nc1 [Compound 59, 2-((2-(((1s,4s)-4-((7-Morpholino-1,6-naphthyridin-5-yl)oxy)cyclohexyl)amino)pyrimidin-5-yl)oxy)acetic acid] | 10000 to 30000 | < 0.5 | 10000 to 100000 | 10000 to 100000 | – |
| O=C(COc1cnc(N[C@H]2CC[C@@H](Oc3nc(N4CCOCC4)cc4ncccc34)CC2)nc1)N1CCSCC1 [Compound 73, 2-((2-(((1s,4s)-4-((7-Morpholino-1,6-naphthyridin-5-yl)oxy)cyclohexyl)amino)pyrimidin-5-yl)oxy)-1-thiomorpholinoethan-1-one] | 100 to 1000 | 0.5 to 1 | 1000 to 10000 | 1000 to 10000 | – |
| O=C(COc1cnc(N[C@H]2CC[C@@H](Oc3nc(N4CCOCC4)cc4ncccc34)CC2)nc1)N1CCCC1 [Compound 74, 2-((2-(((1s,4s)-4-((7-Morpholino-1,6-naphthyridin-5-yl)oxy)cyclohexyl)amino)pyrimidin-5-yl)oxy)-1-(pyrrolidin-1-yl)ethan-1-one] | 100 to 1000 | 0.5 to 1 | 1000 to 10000 | 1000 to 10000 | – |
| O=C(COc1cnc(N[C@H]2CC[C@@H](Oc3nc(N4CCOCC4)cc4ncccc34)CC2)nc1)N1CC(O)C1 [Compound 77, 1-(3-Hydroxyazetidin-1-yl)-2-((2-(((1s,4s)-4-((7-morpholino-1,6-naphthyridin-5-yl)oxy)cyclohexyl)amino)pyrimidin-5-yl)oxy)ethan-1-one] | 100 to 1000 | < 0.5 | 500 to 1000 | 500 to 1000 | – |
| CN(C)C(=O)COc1cnc(NC2CCC(Oc3nc(N4CCOCC4)cc4ncc(N(Cc5ncc([N+](=O)[O-])n5C)S(C)(=O)=O)cc34)CC2)nc1 (centres unmarked) [LFA013, N,N-Dimethyl-2-[2-[[4-[[3-[(1-methyl-5-nitro-imidazol-2-yl)methyl-methylsulfonyl-amino]-7-morpholino-1,6-naphthyridin-5-yl]oxy]cyclohexyl]amino]pyrimidin-5-yl]oxy-acetamide] | – | – | – | – | EC50 ([3]; 20 Gy, 5% O2, inner layers, read-out: Prodrug 5% O2 Inner layers EC50): 10 to 500 nM; EC50 ([3]; 20 Gy, 5% O2, outer layers, read-out: Prodrug 5% O2 Outer layers EC50): 1000 to 10000 nM; EC50 ([3]; 20 Gy, 20% O2, outer layers, read-out: Prodrug 20% O2 Outer layers EC50): 1000 to 10000 nM; EC50 ([3]; value of the (unnamed) effector of the listed prodrug, 20 Gy, 5% O2, inner layers, read-out: Effector 5% O2 Inner layers EC50): 10 to 500 nM; IC50 ([1]; Table 2): 1000 to 10000 nM; IC50 (DNA-PK; Table 2): 10 to 150 nM |
| Cn1c(COC(=O)Nc2cnc3cc(N4CCOCC4)nc(O[C@H]4CC[C@@H](Nc5ncccn5)CC4)c3c2)cnc1[N+](=O)[O-] [LFA108, (3-methyl-2-nitro-imidazol-4-yl)methyl N-[7-morpholino-5-[4-(pyrimidin-2-ylamino)cyclohexoxy]-1,6-naphthyridin-3-yl]carbamate] | – | – | – | – | EC50 ([3]; Homo sapiens, HCT-116, 20 Gy, 5% O2, inner layers, read-out: Prodrug 5% O2 Inner layers EC50): 10 to 500 nM; EC50 ([3]; Homo sapiens, HCT-116, 20 Gy, 5% O2, outer layers, read-out: Prodrug 5% O2 Outer layers EC50): 500 to 1000 nM; EC50 ([3]; Homo sapiens, HCT-116, 20 Gy, 20% O2, outer layers, read-out: Prodrug 20% O2 Outer layers EC50): 1000 to 10000 nM; IC50 ([1]; Table 2): 10000 to 30000 nM; IC50 (DNA-PK; Table 2): 10 to 150 nM |

The next lines start with results.

| IC50 [1, 4] [nM] | IC50 (DNA-PK; Table 1) [nM] | EC50 [2, 8] [nM] | EC50 [2, 9] [nM] | Molecule | also measured |
| --- | --- | --- | --- | --- | --- |
| 1000 to 10000 | 10 to 150 | – | – | 5-(((1s,4s)-4-(1H-imidazol-1-yl)cyclohexyl)oxy)-7-morpholino-N-propyl-1,6-naphthyridine-3-carboxamide [Compound 169] | EC50 [2, 5]: 10000 to 100000 nM; EC50 [2, 6]: 10000 to 100000 nM; EC50 [2, 7]: 10000 to 100000 nM |
| 100 to 1000 | 1 to 10 | – | – | N#CCC(=O)N[C@H]1CC[C@@H](Oc2nc(N3CCOCC3)cc3ncccc23)CC1 [Compound 107, 2-Cyano-N-((1s,4s)-4-((7-morpholino-1,6-naphthyridin-5-yl)oxy)cyclohexyl)acetamide] | – |
| 1000 to 10000 | 10 to 150 | – | – | CCOC(=O)c1cnc2cc(N3CCOCC3)nc(O[C@H]3CC[C@@H](n4ccnc4)CC3)c2c1 [Compound 163, ethyl 5-(((1s,4s)-4-(1H-imidazol-1-yl)cyclohexyl)oxy)-7-morpholino-1,6-naphthyridine-3-carboxylate] | – |
| – | 10 to 150 | 10000 to 100000 | 10000 to 100000 | O=S(=O)(Nc1cnc2cc(N3CCOCC3)nc(O[C@H]3CC[C@@H](Nc4ncccn4)CC3)c2c1)C1CCCC1 [Compound 190, N-(7-morpholino-5-(((1s,4s)-4-(pyrimidin-2-ylamino)cyclohexyl)oxy)-1,6-naphthyridin-3-yl)cyclopentanesulfonamide] | – |
